Test system: 282377-053-R-J1-PDC tumor spheroids, viability
Assay: Anticancer human tumor 282377-053-R-J1-PDC patient-derived colon adenocarcinoma cell line growth inhibition [TAK]
Conditions: spheroids with HUVEC and MSC; for IC50: curve of first compound; for viability, T/C: stronger effect = lower value
In short: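 Drug combinations, each paired with TAK-243 or ipatasertib, were tested on multi-cell spheroids of 60% malignant cells, 25% HUVEC and 15% hMSC. Top concentrations were at or near the clinical Cmax (10 microM if undetermined), decreasing by half-log; viability is given as % test/control.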

[1] = second compound 0.3 µM, first compound 0.0316 µM
[2] = second compound 0.3 µM, first compound 0.1 µM
[3] = second compound 0.3 µM, first compound 0.316 µM
[4] = second compound 0.3 µM, first compound 1 µM
[5] = second compound 0.3 µM, first compound 3.16 µM
[6] = second compound 0.3 µM, first compound 10 µM
[7] = second compound 0.949 µM, first compound 0.0316 µM
[8] = second compound 0.949 µM, first compound 0.1 µM
[9] = second compound 0.949 µM, first compound 0.316 µM
[10] = second compound 0.949 µM, first compound 1 µM
[11] = second compound 0.949 µM, first compound 3.16 µM
[12] = second compound 0.949 µM, first compound 10 µM
[13] = second compound 3 µM, first compound 0.0316 µM
[14] = second compound 3 µM, first compound 0.1 µM
[15] = second compound 3 µM, first compound 0.316 µM
[16] = second compound 3 µM, first compound 1 µM
[17] = second compound 3 µM, first compound 3.16 µM
[18] = second compound 3 µM, first compound 10 µM
[19] = second compound 9.49 µM, first compound 0.0316 µM
[20] = second compound 9.49 µM, first compound 0.1 µM
[21] = second compound 9.49 µM, first compound 0.316 µM
[22] = second compound 9.49 µM, first compound 1 µM
[23] = second compound 9.49 µM, first compound 3.16 µM
[24] = second compound 9.49 µM, first compound 10 µM
[25] = second compound 30 µM, first compound 0.0316 µM
[26] = second compound 30 µM, first compound 0.1 µM
[27] = second compound 30 µM, first compound 0.316 µM
[28] = second compound 30 µM, first compound 1 µM
[29] = second compound 30 µM, first compound 3.16 µM
[30] = second compound 30 µM, first compound 10 µM
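Note: spheroids exposed to drugs for seven days before readout.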

Compound: CC(C)(C)c1nc(-c2cccc(NS(=O)(=O)c3c(F)cccc3F)c2F)c(-c2ccnc(N)n2)s1 + CC(C)NCC(C(=O)N1CCN(c2ncnc3c2C(C)CC3O)CC1)c1ccc(Cl)cc1
- IC50 (second compound 0.3 µM): > 10 µM
- IC50 (second compound 0.949 µM): > 10 µM
- IC50 (second compound 3 µM): > 10 µM
- IC50 (second compound 9.49 µM): > 10 µM
- IC50 (second compound 30 µM): 0.437 µM
- viability, T/C [1]: 83.5%
- viability, T/C [2]: 81%
- viability, T/C [3]: 79.3%
- viability, T/C [4]: 72%
- viability, T/C [5]: 71.3%
- viability, T/C [6]: 63.7%
- viability, T/C [7]: 78.4%
- viability, T/C [8]: 79.7%
- viability, T/C [9]: 71.9%
- viability, T/C [10]: 66.5%
- viability, T/C [11]: 59.6%
- viability, T/C [12]: 57.5%
- viability, T/C [13]: 77.7%
- viability, T/C [14]: 74.8%
- viability, T/C [15]: 69.9%
- viability, T/C [16]: 58.8%
- viability, T/C [17]: 54.4%
- viability, T/C [18]: 53.6%
- viability, T/C [19]: 71.6%
- viability, T/C [20]: 72.4%
- viability, T/C [21]: 65.5%
- viability, T/C [22]: 51.2%
- viability, T/C [23]: 47.5%
- viability, T/C [24]: 52.8%
- viability, T/C [25]: 60%
- viability, T/C [26]: 58.4%
- viability, T/C [27]: 54.6%
- viability, T/C [28]: 36.1%
- viability, T/C [29]: 35.7%
- viability, T/C [30]: 42.6%

Compound: CC(C)n1nc(-c2ccc3oc(N)nc3c2)c2c(N)ncnc21 + CC(C)NCC(C(=O)N1CCN(c2ncnc3c2C(C)CC3O)CC1)c1ccc(Cl)cc1
- IC50 (second compound 0.3 µM): > 0.1 µM
- IC50 (second compound 0.949 µM): 0.0666 µM
- IC50 (second compound 3 µM): 0.0303 µM
- IC50 (second compound 9.49 µM): 0.0147 µM
- IC50 (second compound 30 µM): 0.00407 µM
- viability, T/C (second compound 0.3 µM, first compound 0.000316 µM): 106%
- viability, T/C (second compound 0.3 µM, first compound 0.001 µM): 103%
- viability, T/C (second compound 0.3 µM, first compound 0.00316 µM): 95.7%
- viability, T/C (second compound 0.3 µM, first compound 0.01 µM): 88%
- viability, T/C [1]: 69.7%
- viability, T/C [2]: 56.1%
- viability, T/C (second compound 0.949 µM, first compound 0.000316 µM): 92%
- viability, T/C (second compound 0.949 µM, first compound 0.001 µM): 93%
- viability, T/C (second compound 0.949 µM, first compound 0.00316 µM): 86.3%
- viability, T/C (second compound 0.949 µM, first compound 0.01 µM): 89.9%
- viability, T/C [7]: 71.7%
- viability, T/C [8]: 38%
- viability, T/C (second compound 3 µM, first compound 0.000316 µM): 83.5%
- viability, T/C (second compound 3 µM, first compound 0.001 µM): 85.9%
- viability, T/C (second compound 3 µM, first compound 0.00316 µM): 79%
- viability, T/C (second compound 3 µM, first compound 0.01 µM): 71.5%
- viability, T/C [13]: 49.1%
- viability, T/C [14]: 22.7%
- viability, T/C (second compound 9.49 µM, first compound 0.000316 µM): 81.4%
- viability, T/C (second compound 9.49 µM, first compound 0.001 µM): 77.3%
- viability, T/C (second compound 9.49 µM, first compound 0.00316 µM): 74.7%
- viability, T/C (second compound 9.49 µM, first compound 0.01 µM): 60.5%
- viability, T/C [19]: 30%
- viability, T/C [20]: 14.8%
- viability, T/C (second compound 30 µM, first compound 0.000316 µM): 68.8%
- viability, T/C (second compound 30 µM, first compound 0.001 µM): 70.4%
- viability, T/C (second compound 30 µM, first compound 0.00316 µM): 56.5%
- viability, T/C (second compound 30 µM, first compound 0.01 µM): 25.9%
- viability, T/C [25]: 15.9%
- viability, T/C [26]: 8.24%

Compound: CCCS(=O)(=O)Nc1ccc(F)c(C(=O)c2c[nH]c3ncc(-c4ccc(Cl)cc4)cc23)c1F + CC(C)NCC(C(=O)N1CCN(c2ncnc3c2C(C)CC3O)CC1)c1ccc(Cl)cc1
- IC50 (second compound 0.3 µM): 7.81 µM
- IC50 (second compound 0.949 µM): 6.86 µM
- IC50 (second compound 3 µM): 7.56 µM
- IC50 (second compound 9.49 µM): 5.95 µM
- IC50 (second compound 30 µM): 2.99 µM
- viability, T/C [3]: 79.5%
- viability, T/C [4]: 79.8%
- viability, T/C [5]: 82.6%
- viability, T/C [6]: 24.6%
- viability, T/C (second compound 0.3 µM, first compound 31.6 µM): 1.89%
- viability, T/C (second compound 0.3 µM, first compound 100 µM): 98.5%
- viability, T/C [9]: 76.7%
- viability, T/C [10]: 79.9%
- viability, T/C [11]: 84.2%
- viability, T/C [12]: 7.58%
- viability, T/C (second compound 0.949 µM, first compound 31.6 µM): 2.94%
- viability, T/C (second compound 0.949 µM, first compound 100 µM): 95.3%
- viability, T/C [15]: 76.8%
- viability, T/C [16]: 73.7%
- viability, T/C [17]: 80.5%
- viability, T/C [18]: 33.4%
- viability, T/C (second compound 3 µM, first compound 31.6 µM): 1.38%
- viability, T/C (second compound 3 µM, first compound 100 µM): 89.3%
- viability, T/C [21]: 72.4%
- viability, T/C [22]: 70.1%
- viability, T/C [23]: 71.3%
- viability, T/C [24]: 10.9%
- viability, T/C (second compound 9.49 µM, first compound 31.6 µM): 10.1%
- viability, T/C (second compound 9.49 µM, first compound 100 µM): 76.7%
- viability, T/C [27]: 57.4%
- viability, T/C [28]: 61%
- viability, T/C [29]: 49.5%
- viability, T/C [30]: 9.48%
- viability, T/C (second compound 30 µM, first compound 31.6 µM): 0.93%
- viability, T/C (second compound 30 µM, first compound 100 µM): 46.8%

Compound: Cc1nc(NC(=O)N2CCCC2C(N)=O)sc1-c1ccnc(C(C)(C)C(F)(F)F)c1 (stereo not given) + CC(C)NCC(C(=O)N1CCN(c2ncnc3c2C(C)CC3O)CC1)c1ccc(Cl)cc1
- IC50 (second compound 0.3 µM): > 10 µM
- IC50 (second compound 0.949 µM): > 10 µM
- IC50 (second compound 3 µM): > 10 µM
- IC50 (second compound 9.49 µM): > 10 µM
- IC50 (second compound 30 µM): 5.51 µM
- viability, T/C [1]: 99.7%
- viability, T/C [2]: 91.4%
- viability, T/C [3]: 91.7%
- viability, T/C [4]: 89.8%
- viability, T/C [5]: 79.8%
- viability, T/C [6]: 70.4%
- viability, T/C [7]: 87.2%
- viability, T/C [8]: 91.5%
- viability, T/C [9]: 84%
- viability, T/C [10]: 81%
- viability, T/C [11]: 79.1%
- viability, T/C [12]: 81.3%
- viability, T/C [13]: 83.5%
- viability, T/C [14]: 83.9%
- viability, T/C [15]: 80%
- viability, T/C [16]: 77.3%
- viability, T/C [17]: 76.3%
- viability, T/C [18]: 77.3%
- viability, T/C [19]: 81.7%
- viability, T/C [20]: 81%
- viability, T/C [21]: 76.1%
- viability, T/C [22]: 75.8%
- viability, T/C [23]: 69.6%
- viability, T/C [24]: 64%
- viability, T/C [25]: 71.7%
- viability, T/C [26]: 69.8%
- viability, T/C [27]: 66.4%
- viability, T/C [28]: 58%
- viability, T/C [29]: 56.1%
- viability, T/C [30]: 45.1%
